Results as given in PubChem BioAssay (NCI).
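Where inhibition never reached the appropriate level, the endpoint shown equals the highest concentration tested. Otherwise, values were interpolated linearly from a five-concentration, 48-hour dose response in 96-well plates. The concentration for 50% growth inhibition is given as GI50. The concentration for full growth arrest is given as TGI.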

Key:
Assay in all cases: NCI anticancer screen, dose series, 48 h
CAKI-1 renal = tested on: CAKI-1 renal
HS 578T breast = tested on: HS 578T breast
HT29 colon = tested on: HT29 colon
K-562 leukemia = tested on: K-562 leukemia
NCI-H460 lung = tested on: NCI-H460 lung
NCI-H522 lung = tested on: NCI-H522 lung
OVCAR-3 ovarian = tested on: OVCAR-3 ovarian
OVCAR-5 ovarian = tested on: OVCAR-5 ovarian
OVCAR-8 ovarian = tested on: OVCAR-8 ovarian
UACC-62 melanoma = tested on: UACC-62 melanoma

`CCSc1nc(=S)[nH]c2[nH]ncc12` was tested, and the GI50 (CAKI-1 renal) was 50.8 µM, the TGI (CAKI-1 renal) was over 100 µM and the GI50 (HS 578T breast) was 26 µM. The TGI (HS 578T breast) was 60.8 µM, the GI50 (HT29 colon) was over 100 µM and the TGI (HT29 colon) was over 100 µM. It also gave a GI50 (K-562 leukemia) of over 100 µM, a TGI (K-562 leukemia) of over 100 µM and a GI50 (NCI-H460 lung) of over 100 µM. It also gave a TGI (NCI-H460 lung) of over 100 µM, a GI50 (NCI-H522 lung) of 46.1 µM and a TGI (NCI-H522 lung) of over 100 µM. It also gave a GI50 (OVCAR-3 ovarian) of 64.6 µM, a TGI (OVCAR-3 ovarian) of over 100 µM and a GI50 (OVCAR-5 ovarian) of over 100 µM. For the same compound, the TGI (OVCAR-5 ovarian) was over 100 µM, the GI50 (OVCAR-8 ovarian) was over 100 µM and the TGI (OVCAR-8 ovarian) was over 100 µM. For the same compound, the GI50 (UACC-62 melanoma) was 66.3 µM and the TGI (UACC-62 melanoma) was over 100 µM.

In the case of `O=C(Nc1cccc(-c2nc3ccccc3[nH]2)c1)c1cccc(NC(=O)c2ccco2)c1`, the GI50 (CAKI-1 renal) is reported as 2.53 µM, the TGI (CAKI-1 renal) is reported as 7.21 µM and the GI50 (HS 578T breast) is reported as 2.2 µM. The TGI (HS 578T breast) was 5.97 µM, the GI50 (HT29 colon) was 1.91 µM and the TGI (HT29 colon) was 3.4 µM. For the same compound, the GI50 (K-562 leukemia) was 2.03 µM, the TGI (K-562 leukemia) was 4.36 µM and the GI50 (NCI-H460 lung) was 1.67 µM. The TGI (NCI-H460 lung) was 3.03 µM, the GI50 (NCI-H522 lung) was 2.5 µM and the TGI (NCI-H522 lung) was 6.41 µM. The GI50 (OVCAR-3 ovarian) was 1.97 µM, the TGI (OVCAR-3 ovarian) was 3.39 µM and the GI50 (OVCAR-5 ovarian) was 3.1 µM. The TGI (OVCAR-5 ovarian) was 11.1 µM, the GI50 (OVCAR-8 ovarian) was 2.18 µM and the TGI (OVCAR-8 ovarian) was 5.14 µM. The GI50 (UACC-62 melanoma) was 1.79 µM and the TGI (UACC-62 melanoma) was 3.5 µM.

Work on `N#Cc1c(SCc2ccccc2)nc2[nH]c(=S)[nH]c(=S)c2c1-c1ccco1` yielded a GI50 (CAKI-1 renal) of 42.9 µM, a TGI (CAKI-1 renal) of over 100 µM and a GI50 (HS 578T breast) of 70.6 µM. It also gave a TGI (HS 578T breast) of over 100 µM, a GI50 (HT29 colon) of over 100 µM and a TGI (HT29 colon) of over 100 µM. It also gave a GI50 (K-562 leukemia) of 24.3 µM, a TGI (K-562 leukemia) of over 100 µM and a GI50 (NCI-H460 lung) of 32.3 µM. The TGI (NCI-H460 lung) was over 100 µM, the GI50 (NCI-H522 lung) was over 100 µM and the TGI (NCI-H522 lung) was over 100 µM. It also gave a GI50 (OVCAR-3 ovarian) of 25.8 µM, a TGI (OVCAR-3 ovarian) of 73.5 µM and a GI50 (OVCAR-5 ovarian) of 66.4 µM. The TGI (OVCAR-5 ovarian) was over 100 µM, the GI50 (OVCAR-8 ovarian) was 67.9 µM and the TGI (OVCAR-8 ovarian) was over 100 µM. For the same compound, the GI50 (UACC-62 melanoma) was 21.6 µM and the TGI (UACC-62 melanoma) was 46.6 µM.

Compound `COc1cc2c(cc1OCCCCCN1CCN(c3cc(=O)oc4c(C)c(OC)ccc34)CC1)N=C[C@@H]1CCCN1C2=O` has a GI50 (CAKI-1 renal) of 0.083 µM, a TGI (CAKI-1 renal) of 0.537 µM and a GI50 (HS 578T breast) of under 0.0198 µM. It also gave a TGI (HS 578T breast) of 0.791 µM, a GI50 (HT29 colon) of under 0.01 µM and a TGI (HT29 colon) of 0.0428 µM. The GI50 (K-562 leukemia) was under 0.01 µM, the TGI (K-562 leukemia) was 0.316 µM and the GI50 (NCI-H460 lung) was 0.0197 µM. For the same compound, the TGI (NCI-H460 lung) was 1.71 µM, the GI50 (NCI-H522 lung) was under 0.01 µM and the TGI (NCI-H522 lung) was under 0.0352 µM. For the same compound, the GI50 (OVCAR-3 ovarian) was under 0.01 µM, the TGI (OVCAR-3 ovarian) was 0.0324 µM and the GI50 (OVCAR-5 ovarian) was under 0.0123 µM. It also gave a TGI (OVCAR-5 ovarian) of 0.851 µM, a GI50 (OVCAR-8 ovarian) of 0.018 µM and a TGI (OVCAR-8 ovarian) of 5.15 µM. For the same compound, the GI50 (UACC-62 melanoma) was under 0.01 µM and the TGI (UACC-62 melanoma) was 0.0147 µM.

`Cn1c(Cc2ccccc2)nc2cc3ccccc3cc21` showed a GI50 (CAKI-1 renal) of 35.5 µM, a TGI (CAKI-1 renal) of over 100 µM and a GI50 (HS 578T breast) of 22.2 µM. For the same compound, the TGI (HS 578T breast) was 57.7 µM, the GI50 (HT29 colon) was 43.3 µM and the TGI (HT29 colon) was over 100 µM. It also gave a GI50 (K-562 leukemia) of 37.4 µM, a TGI (K-562 leukemia) of over 100 µM and a GI50 (NCI-H460 lung) of 27.6 µM. It also gave a TGI (NCI-H460 lung) of over 100 µM, a GI50 (NCI-H522 lung) of 34.5 µM and a TGI (NCI-H522 lung) of over 100 µM. The GI50 (OVCAR-3 ovarian) was 36.4 µM, the TGI (OVCAR-3 ovarian) was over 100 µM and the GI50 (OVCAR-5 ovarian) was 42.5 µM. The TGI (OVCAR-5 ovarian) was over 100 µM, the GI50 (OVCAR-8 ovarian) was 24.6 µM and the TGI (OVCAR-8 ovarian) was 63.2 µM. It also gave a GI50 (UACC-62 melanoma) of 19.6 µM and a TGI (UACC-62 melanoma) of 43.5 µM.

Work on `O=C1C=CC(=O)N1c1ccc2c(c1)Cc1cc(NC(=O)C(F)(F)F)ccc1-2` yielded a TGI (CAKI-1 renal) of 32.7 µM, a TGI (HS 578T breast) of 51.9 µM and a TGI (HT29 colon) of 25.5 µM. For the same compound, the TGI (K-562 leukemia) was 59.6 µM, the TGI (NCI-H460 lung) was over 100 µM and the TGI (NCI-H522 lung) was 11.3 µM. For the same compound, the TGI (OVCAR-3 ovarian) was 31.2 µM, the TGI (OVCAR-5 ovarian) was 31.8 µM and the TGI (OVCAR-8 ovarian) was 34.6 µM. The TGI (UACC-62 melanoma) was 30.7 µM.

For `C[C@@H](Oc1cc(-c2cnn(C3CC4(CCNCC4)C3)c2)cnc1N)c1c(F)ccc(Cl)c1Cl`, the GI50 (CAKI-1 renal) was 2.41 µM, the TGI (CAKI-1 renal) was 7.2 µM and the GI50 (HS 578T breast) was 1.37 µM. For the same compound, the TGI (HS 578T breast) was 4.15 µM, the GI50 (HT29 colon) was 0.446 µM and the TGI (HT29 colon) was 2.17 µM. The GI50 (K-562 leukemia) was 0.228 µM, the TGI (K-562 leukemia) was 1.4 µM and the GI50 (NCI-H460 lung) was 0.855 µM. The TGI (NCI-H460 lung) was 2.84 µM, the GI50 (NCI-H522 lung) was 1.48 µM and the TGI (NCI-H522 lung) was 3.12 µM. For the same compound, the GI50 (OVCAR-3 ovarian) was 1.83 µM, the TGI (OVCAR-3 ovarian) was 5.19 µM and the GI50 (OVCAR-5 ovarian) was 1.39 µM. It also gave a TGI (OVCAR-5 ovarian) of 6.65 µM, a GI50 (OVCAR-8 ovarian) of 2.71 µM and a TGI (OVCAR-8 ovarian) of 12.3 µM. It also gave a GI50 (UACC-62 melanoma) of 1.55 µM and a TGI (UACC-62 melanoma) of 3.16 µM.

For `CN(C)c1ccc2[nH]c(O)c(C=Nc3ccc(S(N)(=O)=O)cc3)c2c1`, the GI50 (CAKI-1 renal) was over 25 µM, the TGI (CAKI-1 renal) was over 25 µM and the GI50 (HS 578T breast) was over 25 µM. The TGI (HS 578T breast) was over 25 µM, the GI50 (HT29 colon) was over 25 µM and the TGI (HT29 colon) was over 25 µM. It also gave a GI50 (K-562 leukemia) of over 25 µM, a TGI (K-562 leukemia) of over 25 µM and a GI50 (NCI-H460 lung) of over 25 µM. For the same compound, the TGI (NCI-H460 lung) was over 25 µM, the GI50 (NCI-H522 lung) was over 25 µM and the TGI (NCI-H522 lung) was over 25 µM. For the same compound, the GI50 (OVCAR-3 ovarian) was over 25 µM, the TGI (OVCAR-3 ovarian) was over 25 µM and the GI50 (OVCAR-5 ovarian) was over 25 µM. For the same compound, the TGI (OVCAR-5 ovarian) was over 25 µM, the GI50 (OVCAR-8 ovarian) was over 25 µM and the TGI (OVCAR-8 ovarian) was over 25 µM. For the same compound, the GI50 (UACC-62 melanoma) was over 25 µM and the TGI (UACC-62 melanoma) was over 25 µM.

`COc1cc(N)ccc1Nc1c2ccccc2nc2ccccc12` was tested, and the GI50 (CAKI-1 renal) was 7.75 µM, the TGI (CAKI-1 renal) was 25.1 µM and the GI50 (HS 578T breast) was 14.3 µM. It also gave a TGI (HS 578T breast) of 44.3 µM, a GI50 (HT29 colon) of 3.29 µM and a TGI (HT29 colon) of 11 µM. It also gave a GI50 (K-562 leukemia) of 3.45 µM, a TGI (K-562 leukemia) of over 28.8 µM and a GI50 (NCI-H460 lung) of 1.38 µM. The TGI (NCI-H460 lung) was 7.72 µM, the GI50 (NCI-H522 lung) was 17.9 µM and the TGI (NCI-H522 lung) was 51.3 µM. It also gave a GI50 (OVCAR-3 ovarian) of 12.2 µM, a TGI (OVCAR-3 ovarian) of 25.4 µM and a GI50 (OVCAR-5 ovarian) of 15 µM. It also gave a TGI (OVCAR-5 ovarian) of 29.9 µM, a GI50 (OVCAR-8 ovarian) of 10.2 µM and a TGI (OVCAR-8 ovarian) of 36 µM. The GI50 (UACC-62 melanoma) was 12.9 µM and the TGI (UACC-62 melanoma) was 31.2 µM.
